Results on twelve compounds are retold here after patent publication US5646313A, “Amino acid derivatives, processes for their preparation and their therapeutic application” (Societe Civile Bioprojet, priority 1993, dated 1997).

In the assay the target is enkephalinase. As to the kind of experiment: in vitro assay of the enkephalinase-inhibitory activity (J. Pharmac. Exp. Ther., 1987, 243, 666). The assay is classed as biochemical. The protocol: An assay of the enkephalinase-inhibitory activity (J. Pharmac. Exp. Ther., 1987, 243, 666) of the compounds of formulae (Ia) and (Ib) was performed.
[1] abbreviates: (E) isomer, read-out: (E) Isomer IC50.

Like-named read-outs stand apart in the source and are kept apart here.

Take `COc1ccc(/C=C(/CS)C(=O)NCCC(=O)O)cc1` [Ex 19, N-(E)-[1-oxo-2-(mercaptomethyl)-3-(4-methoxyphenyl)propenyl]-β-alanin]: the IC50 under setting [1] worked out at 2.7 nM. Same read-out and setting: for `CC(CC(=O)O)NC(=O)/C(=C\c1ccccc1)CS` (racemic) [Ex 12, 3-(RS)-N-(E)-[1-oxo-2-(mercaptomethyl)-3-phenylpropenyl]aminobutanoic acid] the value was 7 nM. Still for that read-out and setting: for `O=C(O)CCNC(=O)/C(=C\c1ccc(Oc2ccccc2)cc1)CS` [Ex 41, N-(E)-[1-oxo-2-(mercaptomethyl)-3-(4-phenoxyphenyl)propenyl]-β-alanine] the value was 5.8 nM; for `O=C(O)CCNC(=O)/C(=C\c1ccccc1)CS` [Ex 4, N-(E)-[1-oxo-2-(mercaptomethyl)-3-phenylpropenyl]-β-alanine], 2.8 nM.

Regarding `O=C(O)CCNC(=O)/C(=C\c1ccc(-c2ccccc2)cc1)CS` [Ex 25, N-(E)-[1-oxo-2-(mercaptomethyl)-3-(4-phenylphenyl)propenyl]-β-alanine], the IC50 under setting [1] was found to be 7.5 nM.

On to `O=C(O)CCNC(=O)/C(=C\c1ccc(C(F)(F)F)cc1)CS` [Ex 22, N-(E)-[1-oxo-2-(mercaptomethyl)-3-(4-trifluoromethylphenyl)propenyl]-β-alanine], for which, under setting [1], the IC50 worked out at 12.1 nM. As for `O=C(O)CCCNC(=O)/C(=C\c1ccccc1)CS` [Ex 16, 4-N-(E)-[1-oxo-2-(mercaptomethyl)-3-phenylpropenyl]aminobutanoic acid], under setting [1], the IC50 was found to be 6.4 nM.

On to `CC(CNC(=O)/C(=C\c1ccccc1)CS)C(=O)O` (racemic) [Ex 14], for which the IC50 under setting [1] came out at 10 nM. The same measure, in the same setting: the same measure for `CC(=O)SC/C(=C/c1ccc2c(c1)OCO2)C(=O)NCCC(=O)OCc1ccccc1` [Ex 43, benzyl N-(E)-[1-oxo-2-(acetylthiomethyl)-3-(3,4-methylenedioxyphenyl)propenyl]-β-alaninate]: 19 nM; for `O=C(O)CCNC(=O)/C(=C\c1cc(F)cc(F)c1)CS` [Ex 33, N-(E)-[1-oxo-2-(mercaptomethyl)-3-(3,5-difluorophenyl)propenyl]-β-alanine]: 5.9 nM; for `CCOc1ccc(/C=C(/CS)C(=O)NCCC(=O)O)cc1` [Ex 28, N-(E)-[1-oxo-2-(mercaptomethyl)-3-(4-ethoxyphenyl)propenyl]-β-alanine]: 11.8 nM. With `O=C(O)CCNC(=O)/C(=C/c1ccccc1)CS` [Ex 38, N-(Z)-[1-oxo-2-(mercaptomethyl)-3-phenylpropenyl]-β-alanine], under “(Z) isomer, read-out: (Z) Isomer IC50”, the IC50 was 171 nM.

As a reminder, the IC50 is the concentration at which inhibition is half-maximal.
